Reference: US20010016731A1, “Methods and apparatus for accelerated orthokeratology” (priority 1998, published 2001)

How the values were obtained:
[1] = test system: enucleated pig eyes (cornea); assay: Experiment 2: enucleated pig eyes, EYESYS topographical mapping and slit lamp; conditions: 0.3M sodium persulfate, UV about 30 seconds
Procedure: Second set of experiments also using enucleated pig eyes. an EYESYS topographical system was available to perform topographical mapping of the eyes before and after treatment. In addition, the EFOS Ultracure 100SS was available for UV light treatment. In a control part of the experiment, an eye was examined using a slit lamp and using the EYESYS system. Neither glutaric anhydride nor sodium persulfate were administered prior to application of UV light exposure. However, buffers were administered to simulate full treatment. […] In a second part of the experiment, a second pig eye was examined by slit lamp, and EYESYS. Topographical profiles were printed. The eye was them soaked in phosphate buffer at pH 8.5 for 2 minutes. Glutaric anhydride at 10 mg/ml was prepared in an alcohol solution and immediately administered to the eye. A contact lens was applied to the eye and held in place for 1 minute. The eye was then soaked in a sodium persulfate solution (0.3M sodium persulfate in pH 8.5 buffer) with the lens still in place. After several one (1) minute soaks in the sodium persulfate solution, the eye was exposed to UV light for about 30 seconds. The lens was removed and the eye washed with phosphate buffer, pH 7.2. The eye was then examined by slit lamp and EYESYS. […] In a third part of the experiment, a third eye was treated the same as above, expect that the glutaric anhydride was delivered in a phosphate buffer, pH 8.5, in an attempt to prevent the clouding observed using alcohol.

rabbit's eyes (cornea) = assay: Experiment 3: live rabbit eye, EYESYS topography and slit-lamp; type: in vivo; conditions: glutaric anhydride 20 mg/ml in pH 8.5 phosphate buffer, contact lens, 0.3M sodium persulfate, UV two 30 second bursts
Procedure: Third set of experiments using a live rabbit. Both the EYESYS topographical system and EFOS Ultracure 100SS were available. The rabbit's eyes were examined by slit-lamp and EYESYS. Topographical profiles were printed. The control eye was left untreated. The experimental eye was exposed to 0.02M phosphate buffer, pH 8.5, and treated with glutaric anhydride at 20 mg/ml in pH 8.5 phosphate buffer followed by application of a contact lens. The eye was then washed with 0.02M phosphate buffer, pH 8.5 to remove residual glutaric acid, soaked with buffer containing 0.3M sodium persulfate and exposed to UV light for two 30 second bursts with the contact lens in place. Both the control and treated eyes were examined by slit-lamp and EYESYS. Topographical profiles were printed.

[2] = test system: enucleated pig eyes (cornea)
[3] = glutaric anhydride 10 mg/ml in alcohol solution, contact lens 1 minute
[4] = contact lens without destabilization, sodium persulfate solution then UV about 30 seconds

slit lamp examination (corneal clouding) [1, 3]	slit lamp examination (corneal clouding) ([1]; glutaric anhydride delivered in phosphate buffer pH 8.5, contact lens, compared with alcohol solution)	slit-lamp examination of treated eye (rabbit's eyes (cornea))	time for corneal haze to clear (rabbit's eyes (cornea))	Structure (SMILES)	EYESYS examination (eye topography) [1, 3]	EYESYS examination (eye topography) ([1]; glutaric anhydride delivered in phosphate buffer pH 8.5, contact lens)	surface topography of treated eye (EYESYS) (rabbit's eyes (cornea))	indentations and ridges created by the lens ([2]; 10 mg/ml glutaric anhydride 1 minute, contact lens, 0.3M sodium persulfate, UV 20 seconds)	K-readings after UV treatment ([2]; 10 mg/ml glutaric anhydride 1 minute, contact lens, 0.3M sodium persulfate, UV 20 seconds, pretreatment 36.75/37.5)	persistence of ridge created by the contact lens [2, 4]	slit-lamp appearance of eyes after treatment [2, 4]
some cloudiness	much less corneal clouding	some corneal haze	about 1 hour	O=C1CCCC(=O)O1 [glutaric anhydride]	eye topography had been changed	topographical changes appearing to match the curvature of the applied contact lens	obvious change in surface topography	observed immediately post-treatment and 1 hour after treatment	too steep to read and rather distorted		
				O=S(=O)([O-])OOS(=O)(=O)[O-].[Na+].[Na+] [sodium persulfate]						visible after 1 hour	clear
